# Measured values published in paper PMC10406450 (Frontiers in Endocrinology, 2023).
# Test system: CHO-hGLP-1R cells
# Assay: Cell viability assay (resazurin)
# Format: cell-based, Chinese hamster
# Details: 48 h treatment, then 5 h resazurin dye, fluorescence 590 nm, concentrations up to 1000-fold above the EC50, 3 independent experiments
# Procedure: CHO-hGLP-1R cells described above were plated at 10 000 cells per well in 96-well black clear-bottom poly-d-lysine-coated microtiter plates (Corning, USA). Growth medium comprised DMEM supplemented with 10% FBS (Sigma-Aldrich). […] Fluorescence emission was measured at 590 nm (560 nm excitation) using an Envision plate reader (Perkin Elmer, USA).
compound,measurement,value
CN[C@@H]1C[C@H]2O[C@@](C)([C@@H]1OC)n1c3ccccc3c3c4c(c5c6ccccc6n2c5c31)C(=O)NC4 [staurosporine],cytotoxicity (cell viability),expected effect on loss of cell viability
